From US20040152596A1, “Coated seed and process for coating a seed” (priority 2001, published 2004) come the findings set out here.

For one assay, the system named is Tomato. The note with it: for Emergence percentage: fertilizer 10% of seed weight, fixing agent 2% of seed weight.
Where [1] appears, read: fertilizer 4% of seed weight, fixing agent 2% of seed weight.

Experimental for Barley: (§1) A number of tests were carried out with the purpose of finding for various plant species the optimal fertilizer and the optimal fertilizer amount in terms of emergence. […] The fixing agent was used in an amount of 2% of the weight of the seeds. […] These percentages are % by weight, calculated from the seed weight.
Experimental for Pea: A number of tests were carried out with the purpose of finding for various plant species the optimal fertilizer and the optimal fertilizer amount in terms of emergence. […] The fixing agent was used in an amount of 2% of the weight of the seeds. […] (DCP) or urea phosphate (UP). […] These percentages are % by weight, calculated from the seed weight.
The results of the emergence tests are shown in Table 2, wherein the numeric values indicate the emergence percentage.
Experimental for Rape: as §1
Experimental for Sunflower: as §1
Experimental for Tomato: as §1
Experimental for Wheat: as §1

As to `O=P([O-])(O)O.[K+]` [MKP, monopotassium phosphate], the “Combined effect in terms of plant emergence and phosphorus uptake” value in the assay with Tomato, in the assay on Wheat, with Sunflower and in the assay on Barley was “best combined effect” each time. Also, the Emergence percentage with Tomato is recorded as 80%; with Pea (setting [1]), 95 (4%); in the assay with Wheat (setting [1]), 85%; in the assay with Sunflower (fertilizer 10% of seed weight, fixing agent 2% of seed weight) it was 87%; in the assay with Barley (fertilizer 6% of seed weight, fixing agent 2% of seed weight), 93%; in the assay with Rape (fertilizer 8% of seed weight, fixing agent 2% of seed weight), 85 (8%).

`NC(N)=O.O=P(O)(O)O` [UP, urea phosphate]: in the assay with Tomato, the “Combined effect in terms of plant emergence and phosphorus uptake” value is on record as “best combined effect”. In addition, the Emergence percentage in the assay with Tomato is 82%. In addition, the “Suitability of phosphorus fertilizer as seed coating (emergence table)” value in the assay with Pea, in the assay on Wheat, in the assay with Sunflower, in the assay with Barley and in the assay with Rape was “Not suitable” each time.
